The source of these data is paper PMC9931918, “Conjugation to a cell-penetrating peptide drives the tumour accumulation of the GLP1R antagonist exendin(9-39)” (European Journal of Nuclear Medicine and Molecular Imaging, 2022).

One data set deals with CHL-GLP1R cells. As to the kind of experiment: Binding and internalisation assay of 111In-labelled exendin variants on GLP1R-positive cells. It counts as cell-based, Chinese hamster.
A short description of a further data set: in vivo. Also on record: species or system BALB/c nude mice. Particulars: BALB/c nude, mouse, iv, 20 pmol/mouse, total radioactivity. The method, then:
Mice were injected subcutaneously on the right flank with 0.2 mL of a cell suspension containing 15,000,000 INS-1 cells/mL in RPMI (3,000,000 cells/mouse). When the tumours were 2–5 mm in diameter, mice were randomly divided into groups and the experiment was performed. All mice were intravenously injected with 20 pmol/mouse (0.37 MBq/mouse) of the corresponding radiolabelled exendin variant in approximately 200 μL PBS/0.5% BSA. 12 mice received [^111In]In-DTPA-exendin-4 (referred to as exendin-4), 12 mice received [^111In]In-DTPA-exendin-4-Pen (referred to as exendin-4-Pen), 11 mice received [^111In]In-DTPA-exendin(9-39) (referred to as exendin(9-39) and 11 mice received [^111In]In-DTPA-exendin(9-39)-Pen (referred to as exendin(9-39)-Pen). To determine non-specific uptake, an excess of unlabelled peptide was injected (blocking group). A 100-fold excess of unlabelled DTPA-exendin-4 or DTPA-exendin(9-39) was co-injected (5 or 6 mice per group). Blocking groups were only included at the 4 h timepoint, to reduce the number of mice used as a control. After 1 h and 4 h after injection, mice were euthanized by CO2/O2 asphyxiation. Blood, tumours and relevant tissues (muscle, heart, lung, spleen, pancreas, kidney, liver, stomach, duodenum and colon) of all animals were dissected, weighed and measured in a gamma-counter (2480 Wizard 3”, LKB/Wallace, Perkin-Elmer, Waltham, MA, USA). The percentage injected dose per gram tissue (% ID/g) was determined for each tissue, based on the cpm measured for diluted injection mixtures (standards). For the statistical analysis, the data were log transformed to correct for differences in the intra-group spread and ensure a normal distribution. The difference in tumour uptake between the four compounds was evaluated separately for each timepoint, with a one-way ANOVA and Tukey’s post hoc test. We accepted a type I alpha error of 0.05. The number of animals per group was selected assuming an SD of 10% of the mean, to reach a statistical power of 80% (beta type error = 0.2).

A word on the tissue uptake: it is the percentage of the injected dose found per gram of tissue. As to `CC[C@H](C)[C@H](NC(=O)[C@H](Cc1ccccc1)NC(=O)[C@H](CC(C)C)NC(=O)[C@H](CCCNC(=N)N)NC(=O)[C@@H](NC(=O)[C@H](C)NC(=O)[C@H](CCC(=O)O)NC(=O)[C@H](CCC(=O)O)NC(=O)[C@H](CCC(=O)O)NC(=O)[C@H](CCSC)NC(=O)[C@H](CCC(N)=O)NC(=O)[C@H](CCCCN)NC(=O)[C@H](CO)NC(=O)[C@H](CC(C)C)NC(=O)[C@@H](N)CC(=O)O)C(C)C)C(=O)N[C@@H](CCC(=O)O)C(=O)N[C@@H](Cc1c[nH]c2ccccc12)C(=O)N[C@@H](CC(C)C)C(=O)N[C@@H](CCCCN)C(=O)N[C@@H](CC(N)=O)C(=O)NCC(=O)NCC(=O)N1CCC[C@H]1C(=O)N[C@@H](CO)C(=O)N[C@@H](CO)C(=O)NCC(=O)N[C@@H](C)C(=O)N1CCC[C@H]1C(=O)N1CCC[C@H]1C(=O)N1CCC[C@H]1C(=O)N[C@@H](CO)C(=O)N[C@@H](CCCNC(=N)N)C(=O)N[C@@H](CCC(N)=O)C(=O)N[C@H](C(=O)N[C@@H](CCCCN)C(=O)N[C@H](C(=O)N[C@@H](Cc1c[nH]c2ccccc12)C(=O)N[C@@H](Cc1ccccc1)C(=O)N[C@@H](CCC(N)=O)C(=O)N[C@@H](CC(N)=O)C(=O)N[C@@H](CCCNC(=N)N)C(=O)N[C@@H](CCCNC(=N)N)C(=O)N[C@@H](CCSC)C(=O)N[C@@H](CCCCN)C(=O)N[C@@H](Cc1c[nH]c2ccccc12)C(=O)N[C@@H](CCCCN)C(=O)N[C@@H](CCCCNC(=O)CN(CCN(CCN(CC(=O)O)CC(=O)O)CC(=O)O)CC(=O)O)C(N)=O)[C@@H](C)CC)[C@@H](C)CC` [[111In]In-exendin(9-39)-Pen, metal not drawn], in the data set on CHL-GLP1R cells (30 minutes and 4 hours incubation at 37 °C, approx. 50 pM, acid-releasable fraction), the “binding to CHL-GLP1R cells compared with the unconjugated peptide” value is recorded as “increased binding”. The “internalisation (percentage of the total activity added)” value in the data set on CHL-GLP1R cells (CHL-GLP1R cells, 4 hours incubation at 37 °C, approx. 50 pM 111In-labelled peptide in RPMI-1640 with 0.5% BSA, acid wash then NaOH lysis, γ-counter, mean ± SD of three wells) was 17.7 ± 0.5%. In the data set “in vivo” (pancreatic uptake), the tissue uptake at 1 h came to 2.2 ± 0.3 %ID/g and the tissue uptake at 4 h was 1.2 ± 0.2 %ID/g. Also, in “in vivo” (tumour accumulation), the tissue uptake at 1 h was determined as 8.6 ± 2.2 %ID/g and the tissue uptake at 4 h amounted to 6.6 ± 1.2 %ID/g.
